{"source": "patent US20240383954A1", "about": "“PEPTIDE INHIBITORS OF INTERLEUKIN-23 RECEPTOR AND THEIR USE TO TREAT INFLAMMATORY DISEASES” (Janssen Biotech, Inc., priority 2020, published 2024)", "target": "IL-23R (Homo sapiens, UniProt Q5VWK5)", "sequence (Q5VWK5 24-629)": "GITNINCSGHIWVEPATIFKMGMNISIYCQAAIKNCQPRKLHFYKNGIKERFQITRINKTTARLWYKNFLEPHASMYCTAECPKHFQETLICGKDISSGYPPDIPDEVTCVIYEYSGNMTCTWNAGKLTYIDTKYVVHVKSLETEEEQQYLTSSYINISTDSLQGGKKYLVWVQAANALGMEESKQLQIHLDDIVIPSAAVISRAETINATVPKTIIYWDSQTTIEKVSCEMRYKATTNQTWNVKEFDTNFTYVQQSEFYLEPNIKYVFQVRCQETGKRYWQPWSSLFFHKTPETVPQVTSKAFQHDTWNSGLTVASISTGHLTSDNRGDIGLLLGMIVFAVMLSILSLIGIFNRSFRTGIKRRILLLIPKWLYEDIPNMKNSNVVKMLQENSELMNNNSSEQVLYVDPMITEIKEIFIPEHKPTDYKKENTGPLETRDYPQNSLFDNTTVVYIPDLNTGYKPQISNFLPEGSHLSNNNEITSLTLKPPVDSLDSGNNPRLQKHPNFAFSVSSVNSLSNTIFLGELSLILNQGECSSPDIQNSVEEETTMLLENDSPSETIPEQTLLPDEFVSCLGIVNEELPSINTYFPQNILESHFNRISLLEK", "experiment": "cell-based", "conditions": "PBMC pSTAT3 IC50 (nM), PBMCs from healthy donors, IL-23 5 ng/mL, 30 minutes, phosphorylated STAT3", "note": "Positions of bridges follow the written chain, without caps; N, C: chain ends. Non-standard residues stand in square brackets, D forms with d. Residues, ends and D or L forms follow the SMILES beside them. Trp(7-Me) = Cc1cccc2c(C[C@H](N)C(=O)O)c[nH]c12; 2Nal = N[C@@H](Cc1ccc2ccccc2c1)C(=O)O; AEF = NCCOc1ccc(C[C@H](N)C(=O)O)cc1; αMeF = C[C@](N)(Cc1ccccc1)C(=O)O; Cit = NC(=O)NCCC[C@H](N)C(=O)O; αMeL = CC(C)C[C@](C)(N)C(=O)O; Pen = CC(C)(S)[C@H](N)C(=O)O; Ac5c = NC1(C(=O)O)CCCC1; Thp = NC1(C(=O)O)CCOCC1;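 further: cryopreserved PBMCs stimulated at 37 °C in 5% CO2, then lysed, with phosphorylated STAT3 quantified in lysates using a phospho-STAT panel kit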"}
{"smiles": "CC(=O)NCCCC[C@@H]1NC(=O)[C@H](Cc2c[nH]c3c(C)cccc23)NC(=O)[C@H]([C@@H](C)O)NC(=O)[C@H](CC(N)=O)NC(=O)[C@@H](NC(C)=O)C(C)(C)SSC(C)(C)[C@@H](C(=O)N[C@@H](Cc2ccc(OCCN)cc2)C(=O)N[C@@H](Cc2ccc3ccccc3c2)C(=O)N[C@@](C)(CCCCN)C(=O)N[C@@H](CCCCNC(C)=O)C(=O)N[C@@H](CC(N)=O)C(=O)N[C@@](C)(Cc2ccccc2)C(=O)N[C@H](Cc2ccc(O)cc2)C(N)=O)NC1=O", "note": "[Compound 100, Ac-[Pen]-N-T-[W(7-Me)]-[Lys(Ac)]-[Pen]-Phe[4-(2-aminoethoxy)]-[2-Nal]-[a-MeLys]-[Lys(Ac)]-N-[a-MePhe]-[(D)Tyr]-NH2]", "values": [{"measurement": "IC50", "value": 21, "unit": "nM"}]}
{"smiles": "CC(=O)NCCCC[C@@H]1NC(=O)[C@H](Cc2c[nH]c3c(C)cccc23)NC(=O)[C@H]([C@@H](C)O)NC(=O)[C@H](CC(N)=O)NC(=O)[C@@H](NC(=O)[C@@H](CCCNC(=N)N)NC(C)=O)C(C)(C)SSC(C)(C)[C@@H](C(=O)N[C@@H](Cc2ccc(OCCN)cc2)C(=O)N[C@@H](Cc2ccc3ccccc3c2)C(=O)NC2(C(=O)N[C@@H](CCC(=O)O)C(=O)N[C@@H](CC(N)=O)C(=O)NC3(C(N)=O)CCOCC3)CCCC2)NC1=O", "note": "[Compound 101, Ac-[(D)Arg]-[Pen]-N-T-[W(7-Me)]-[Lys(Ac)]-[Pen]-Phe[4-(2-aminoethoxy)]-[2-Nal]-[Acvc]-E-N-[THP]-NH2] (Ac-[dR][Pen]NT[Trp(7-Me)]K(Ac)[Pen][AEF][2Nal][Ac5c]EN[Thp]-NH2; disulfide 2-7)", "values": [{"measurement": "IC50", "value": 0.74, "unit": "nM"}]}
{"smiles": "CC(=O)NCCCC[C@@H]1NC(=O)[C@H](Cc2c[nH]c3ccccc23)NC(=O)[C@H]([C@@H](C)O)NC(=O)[C@H](CC(N)=O)NC(=O)[C@@H](NC(=O)[C@@H](CCCNC(=N)N)NC(C)=O)C(C)(C)SSC(C)(C)[C@@H](C(=O)N[C@@H](Cc2ccc(OCCN)cc2)C(=O)N[C@@H](Cc2ccc3ccccc3c2)C(=O)NC2(C(=O)N[C@@H](CCC(=O)O)C(=O)N[C@@H](CC(N)=O)C(=O)N[C@@](C)(Cc3ccccc3)C(N)=O)CCCC2)NC1=O", "note": "[Compound 102, Ac-[(D)Arg]-[Pen]-N-T-W-[Lys(Ac)]-[Pen]-Phe[4-(2-aminoethoxy)]-[2-Nal]-[Acvc]-E-N-[a-MePhe]-NH2] (Ac-[dR][Pen]NTWK(Ac)[Pen][AEF][2Nal][Ac5c]EN[αMeF]-NH2; disulfide 2-7)", "values": [{"measurement": "IC50", "value": 8.4, "unit": "nM"}]}
{"smiles": "CC(=O)NCCCC[C@H](NC(=O)[C@](C)(CCCCN)NC(=O)[C@H](Cc1ccc2ccccc2c1)NC(=O)[C@H](Cc1ccc(OCCN)cc1)NC(=O)[C@H]1NC(=O)[C@H](CCCCNC(=O)C(F)(F)F)NC(=O)[C@H](Cc2c[nH]c3ccccc23)NC(=O)[C@H]([C@@H](C)O)NC(=O)[C@H](CC(N)=O)NC(=O)[C@@H](NC(C)=O)C(C)(C)SSC1(C)C)C(=O)N[C@@H](CC(N)=O)C(=O)NC1(C(N)=O)CCOCC1", "note": "[Compound 103, Ac-[Pen]-N-T-W-[Lys(COCF3)]-[Pen]-Phe[4-(2-aminoethoxy)]-[2-Nal]-[a-MeLys]-[Lys(Ac)]-N-[THP]-NH2]", "values": [{"measurement": "IC50", "value": 57, "unit": "nM"}]}
{"smiles": "CC(=O)NCCCC[C@H](NC(=O)[C@](C)(CC(C)C)NC(=O)[C@H](Cc1ccc2ccccc2c1)NC(=O)[C@H](Cc1ccc(OCCN)cc1)NC(=O)[C@H]1NC(=O)[C@H](CCCNC(N)=O)NC(=O)[C@H](Cc2c[nH]c3c(C)cccc23)NC(=O)[C@H]([C@@H](C)O)NC(=O)[C@H](CC(N)=O)NC(=O)[C@@H](NC(C)=O)C(C)(C)SSC1(C)C)C(=O)N[C@@H](CC(N)=O)C(=O)N[C@@](C)(Cc1ccccc1)C(N)=O", "note": "[Compound 104, Ac-[Pen]-N-T-[W(7-Me)]-[Cit]-[Pen]-Phe[4-(2-aminoethoxy)]-[2-Nal]-[aMeLeu]-[Lys(Ac)]-N-[a-MePhe]-NH2] (Ac-[Pen]NT[Trp(7-Me)][Cit][Pen][AEF][2Nal][αMeL]K(Ac)N[αMeF]-NH2; disulfide 1-6)", "values": [{"measurement": "IC50", "value": 8.2, "unit": "nM"}]}
